Counter-ions that a name gives are not always drawn.
Assays:
[1] = target: Ras GEF SOS (Son of Sevenless) (Homo sapiens, UniProt Q07889); assay: SOS-mediated nucleotide exchange on Ras (BODIPY-GDP fluorescence); format: biochemical; conditions: SOS-mediated exchange of BODIPY-GDP for GTP on Ras
Summary of the method: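 Ras loaded with BODIPY-GDP was mixed in buffer with test compound, then GTP and SOS. Fluorescence change from labeled GDP/GTP exchange was followed over time, and rates came from single-exponential fits. EC50 came from a four-parameter fit of mean rate against compound concentration.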

Son of Sevenless (SOS) = target: T1, Son of Sevenless (SOS) (Homo sapiens, UniProt Q07889); assay: Binding to SOS, fluorescence polarization anisotropy (FPA) probe displacement; conditions: displacement of FITC-conjugated probe (Example 285), affinity calculated from IC50
T1 sequence (Q07889 564-1049 limits assumed): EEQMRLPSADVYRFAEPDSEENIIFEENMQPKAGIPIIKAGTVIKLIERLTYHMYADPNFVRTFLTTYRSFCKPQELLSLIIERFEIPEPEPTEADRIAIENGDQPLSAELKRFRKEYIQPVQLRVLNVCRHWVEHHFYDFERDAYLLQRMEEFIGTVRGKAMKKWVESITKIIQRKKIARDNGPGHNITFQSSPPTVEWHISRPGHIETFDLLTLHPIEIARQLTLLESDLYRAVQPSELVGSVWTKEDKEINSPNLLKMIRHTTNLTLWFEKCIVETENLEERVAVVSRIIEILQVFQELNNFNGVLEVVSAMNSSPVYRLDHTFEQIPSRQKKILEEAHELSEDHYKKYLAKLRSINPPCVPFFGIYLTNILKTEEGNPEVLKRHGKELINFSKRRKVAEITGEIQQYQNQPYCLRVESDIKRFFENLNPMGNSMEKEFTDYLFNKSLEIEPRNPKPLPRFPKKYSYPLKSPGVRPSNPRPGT
Summary of the method: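 A FITC-conjugated probe compound was incubated with SOS in buffer, and its displacement was tracked as a change in fluorescence anisotropy across a test-compound dose range. IC50 came from a four-parameter variable-slope fit, and binding affinity was calculated from it.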

Ras GEF SOS (Son of Sevenless), sequence (P01112 1-166 partner limits assumed, one chain of several): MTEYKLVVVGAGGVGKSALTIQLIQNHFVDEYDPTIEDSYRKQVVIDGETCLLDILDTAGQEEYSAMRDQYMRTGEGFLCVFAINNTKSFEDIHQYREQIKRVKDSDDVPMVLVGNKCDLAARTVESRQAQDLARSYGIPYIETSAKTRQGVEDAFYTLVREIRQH

Row | SMILES | EC50 [1] | Ki (Son of Sevenless (SOS))
1 | Cc1cc(C2=CCNCC2)c2nc(N3CCNCC3)n(Cc3cc(C)c(F)c(C)c3)c2c1 [Example 103, 1-(4-fluoro-3,5-dimethylbenzyl)-6-methyl-2-(piperazin-1-yl)-4-(1,2,3,6-tetrahydropyridin-4-yl)-1H-benzo[d]imidazole] | 1 to 5 µM | < 0.5 µM
2 | Cc1cc2c(nc(N3CCNCC3)n2Cc2ccc(Cl)cc2)c(-c2ccccc2)c1C [Example 105, 1-(4-chlorobenzyl)-5,6-dimethyl-4-phenyl-2-(piperazin-1-yl)-1H-benzo[d]imidazole trifluoroacetate] | 1 to 5 µM | > 5 µM
3 | CCc1cc(Cn2c(NCCN)nc3c(-c4ccccc4Cl)c(C)c(C)cc32)ccc1Cl [Example 112, N^1-(1-(4-chloro-3-ethylbenzyl)-4-(2-chlorophenyl)-5,6-dimethyl-1H-benzo[d]imidazol-2-yl)ethane-1,2-diamine trifluoroacetate] | 5 to 30 µM | 1 to 5 µM
4 | CCc1cc(Cn2c(NCCN)nc3c(-c4c(C)nn(C)c4C)c(C)c(C)cc32)ccc1Cl [Example 115, N^1-(1-(4-chloro-3-ethylbenzyl)-5,6-dimethyl-4-(1,3,5-trimethyl-1H-pyrazol-4-yl)-1H-benzo[d]imidazol-2-yl)ethane-1,2-diamine trifluoroacetate] | 5 to 30 µM | > 5 µM
5 | Cc1ccccc1-c1c(C)c(C)cc2c1nc(NCCN)n2Cc1cccc(C#N)c1 [Example 116, 3-((2-((2-aminoethyl)amino)-5,6-dimethyl-4-(o-tolyl)-1H-benzo[d]imidazol-1-yl)methyl)benzonitrile trifluoroacetate] | 1 to 5 µM | 1 to 5 µM
6 | Cc1cc(Cn2c(N3CCNCC3)nc3c(-c4ccc(CN)cc4)cc(Cl)cc32)cc(C)c1F [Example 122, (4-(6-chloro-1-(4-fluoro-3,5-dimethylbenzyl)-2-(piperazin-1-yl)-1H-benzo[d]imidazol-4-yl)phenyl)methanamine trifluoroacetate] | 1 to 5 µM | 0.5 to 1 µM
7 | Cc1cc(Cn2c(N3CCNCC3)nc3c(C#Cc4ccccc4)cc(Cl)cc32)cc(C)c1F [Example 123, 6-chloro-1-(4-fluoro-3,5-dimethylbenzyl)-4-(phenylethynyl)-2-(piperazin-1-yl)-1H-benzo[d]imidazole trifluoroacetate] | 1 to 5 µM | 1 to 5 µM
8 | Cc1cc(-c2ccccc2C)c2ncn(Cc3cc(C)c(F)c(C)c3)c2c1 [Example 142, 1-(4-fluoro-3,5-dimethylbenzyl)-6-methyl-4-(o-tolyl)-1H-benzo[d]imidazole] | 30 to 100 µM | > 5 µM
9 | Cc1cc(-c2ccccc2C)c2ncn(Cc3ccc(F)c(Cl)c3)c2c1 [Example 143, 1-(3-chloro-4-fluorobenzyl)-6-methyl-4-(o-tolyl)-1H-benzo[d]imidazole] | 5 to 30 µM | > 5 µM
10 | Cc1cc(CN(C)C)c2ncn(Cc3ccc(F)c(Cl)c3)c2c1 [Example 145, 1-(1-(3-chloro-4-fluorobenzyl)-6-methyl-1H-benzo[d]imidazol-4-yl)-N,N-dimethylmethanamine trifluoroacetate] | 30 to 100 µM | > 5 µM
11 | CCNCc1c(C)c(C)cc2c1nc(NCCN)n2Cc1ccc(F)c(Cl)c1 [Example 147, N^1-(1-(3-chloro-4-fluorobenzyl)-4-((ethylamino)methyl)-5,6-dimethyl-1H-benzo[d]imidazol-2-yl)ethane-1,2-diamine trifluoroacetate] | < 1 µM | 1 to 5 µM
12 | CCCN1CC[C@@H](C(=O)c2ccccc2)[C@H]1c1cc(Cl)cc2c1nc(N1CCNCC1)n2Cc1cc(C)c(F)c(C)c1 [Example 148, ((2S,3R)-2-(6-chloro-1-(4-fluoro-3,5-dimethylbenzyl)-2-(piperazin-1-yl)-1H-benzo[d]imidazol-4-yl)-1-propylpyrrolidin-3-yl)(phenyl)methanone trifluoroacetate] | 1 to 5 µM | 0.5 to 1 µM
13 | CC(C)CN1CC[C@@H](C(=O)c2ccccc2)[C@H]1c1cc(Cl)cc2c1nc(N1CCNCC1)n2Cc1ccc(F)c(Cl)c1 [Example 150, ((2S,3R)-2-(6-chloro-1-(3-chloro-4-fluorobenzyl)-2-(piperazin-1-yl)-1H-benzo[d]imidazol-4-yl)-1-isobutylpyrrolidin-3-yl)(phenyl)methanone trifluoroacetate] | 5 to 30 µM | > 5 µM
14 | CC(C)CN1CC[C@@H](C(=O)c2ccccc2)[C@@H]1c1cc(Cl)cc2c1nc(N1CCNCC1)n2Cc1ccc(F)c(Cl)c1 [Example 151, ((2R,3R)-2-(6-chloro-1-(3-chloro-4-fluorobenzyl)-2-(piperazin-1-yl)-1H-benzo[d]imidazol-4-yl)-1-isobutylpyrrolidin-3-yl)(phenyl)methanone trifluoroacetate] | 5 to 30 µM | > 5 µM
15 | Cc1cc(Cn2c(NCCN)nc3c([C@@H](N)c4ccccc4)cc(Cl)cc32)cc(C)c1F [Example 160, (S)—N^1-(4-(amino(phenyl)methyl)-6-chloro-1-(4-fluoro-3,5-dimethylbenzyl)-1H-benzo[d]imidazol-2-yl)ethane-1,2-diamine trifluoroacetate] | 1 to 5 µM | < 0.5 µM

Results, then the compound that gave them:

Row | EC50 [1] | Ki (Son of Sevenless (SOS)) | SMILES
16 | < 1 µM | < 0.5 µM | Cc1cc(-c2c(C)nn(C)c2C)c2nc(N3CCNCC3)n(Cc3ccc(F)c(Cl)c3)c2c1 [Example 121, 1-(3-chloro-4-fluorobenzyl)-6-methyl-2-(piperazin-1-yl)-4-(1,3,5-trimethyl-1H-pyrazol-4-yl)-1H-benzo[d]imidazole trifluoroacetate]
17 | < 1 µM | 0.5 to 1 µM | CN(CCO)Cc1cc(Cl)cc2c1nc(N1CCNCC1)n2Cc1ccc(F)c(Cl)c1 [Example 134, 2-(((6-chloro-1-(3-chloro-4-fluorobenzyl)-2-(piperazin-1-yl)-1H-benzo[d]imidazol-4-yl)methyl)(methyl)amino)ethan-1-ol trifluoroacetate]
18 | < 1 µM | 1 to 5 µM | CN(CCCO)Cc1cc(Cl)cc2c1nc(N1CCNCC1)n2Cc1ccc(F)c(Cl)c1 [Example 135, 3-(((6-chloro-1-(3-chloro-4-fluorobenzyl)-2-(piperazin-1-yl)-1H-benzo[d]imidazol-4-yl)methyl)(methyl)amino)propan-1-ol trifluoroacetate]
19 | < 1 µM | 1 to 5 µM | CCN(CC)Cc1cc(Cl)cc2c1nc(N1CCNCC1)n2Cc1ccc(F)c(Cl)c1 [Example 136, N-((6-chloro-1-(3-chloro-4-fluorobenzyl)-2-(piperazin-1-yl)-1H-benzo[d]imidazol-4-yl)methyl)-N-ethylethanamine trifluoroacetate]
20 | 1 to 5 µM | 1 to 5 µM | NCCNCc1cc(Cl)cc2c1nc(N1CCNCC1)n2Cc1ccc(F)c(Cl)c1 [Example 137, N^1-((6-chloro-1-(3-chloro-4-fluorobenzyl)-2-(piperazin-1-yl)-1H-benzo[d]imidazol-4-yl)methyl)ethane-1,2-diamine trifluoroacetate]
21 | 5 to 30 µM | > 5 µM | CC(C)N1CC[C@@H](C(=O)c2ccccc2)[C@@H]1c1cc(Cl)cc2c1nc(N1CCNCC1)n2Cc1ccc(F)c(Cl)c1 [Example 153, ((2R,3R)-2-(6-chloro-1-(3-chloro-4-fluorobenzyl)-2-(piperazin-1-yl)-1H-benzo[d]imidazol-4-yl)-1-isopropylpyrrolidin-3-yl)(phenyl)methanone trifluoroacetate]

— patent publication US10501421B1, “Substituted benzimidazoles as modulators of Ras signaling” (VANDERBILT UNIVERSITY, priority 2017, dated 2019)
